Key:
[1] = molecular target: T1, recombinant human ALK5 (TGF-βR1) protein (Homo sapiens, UniProt P36897); test: Biochemical ALK5 (TGF-βR1) assay to measure pKi (LANCE Ultra ULight kinase assay); conditions: apparent pKi from pIC50 by Cheng-Prusoff, read-out: ALK5 pKi (converted)
T1 construct: purchased Life Technologies PR9075A
T1 sequence (P36897 34-503): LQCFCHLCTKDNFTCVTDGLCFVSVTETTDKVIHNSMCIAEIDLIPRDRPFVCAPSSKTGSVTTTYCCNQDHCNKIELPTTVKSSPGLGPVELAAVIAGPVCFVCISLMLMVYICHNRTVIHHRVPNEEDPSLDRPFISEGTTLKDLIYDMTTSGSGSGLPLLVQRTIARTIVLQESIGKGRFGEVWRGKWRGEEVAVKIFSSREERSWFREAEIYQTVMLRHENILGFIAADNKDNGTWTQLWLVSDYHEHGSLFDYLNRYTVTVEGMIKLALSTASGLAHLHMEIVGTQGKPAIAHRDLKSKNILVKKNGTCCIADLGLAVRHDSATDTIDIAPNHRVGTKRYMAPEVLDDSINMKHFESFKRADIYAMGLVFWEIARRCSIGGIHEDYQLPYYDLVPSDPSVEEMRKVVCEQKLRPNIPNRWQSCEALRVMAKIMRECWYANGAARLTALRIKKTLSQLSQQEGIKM
Procedure, shortened: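 Compounds (10 μM to 25 pM) preincubated 60 minutes at room temperature with enzyme, then reaction run 60 minutes at 37° C with ATP added as 125 μM (5× final). Stopped with EDTA plus Eu-anti-phospho-Topoisomerase 2-alpha (Thr1342) antibody, TR-FRET read at 665 nm; pIC50 converted to pKi via Cheng-Prusoff.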

[2] = system: TGF-β-stimulated SMAD3 phosphorylation in BEAS-2B cells; test: Cellular ALK5 potency assay, inhibition of TGF-β stimulated pSMAD3 formation in BEAS-2B cells; format: cell-based; conditions: Homo sapiens; inhibition of TGF-β stimulated pSMAD3 formation, BEAS-2B cells; read-out: BEAS2B pIC50 (converted)
Procedure, shortened: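 Cells seeded overnight; rinse with supplemented HBSS; compound 1 h at 37 °C; TGF-β 10 ng/mL final, 30 min; lyse; AlphaLISA acceptor and detector beads 2 h apart, read next day. Potency expressed as pIC50.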

Ki [1] [nM]	SMILES	IC50 [2] [nM]
< 0.0316	COc1nc(-c2ccc3ncc(C4=CCC5(CCNCC5)CC4)cc3c2)c(-c2cccc(C)n2)[nH]1 [Compound 1251, 9-[6-[2-methoxy-5-(6-methyl-2-pyridyl)-1H-imidazol-4-yl]-3-quinolyl]-3-azaspiro[5.5]undec-9-ene]	25.1 to 158
< 0.0316	Cc1cccc(-c2[nH]cnc2-c2ccc3ncc(-c4cc(C(=O)OC5CCNCC5)cs4)cc3c2)n1 [Compound 1139, 4-piperidyl 5-[6-[5-(6-methyl-2-pyridyl)-1H-imidazol-4-yl]-3-quinolyl]thiophene-3-carboxylate]	25.1 to 158
0.398 to 3.16	Cc1cccc(-c2n[nH]cc2-c2ccc3nccc(C(=O)NCCCCC(NC(=O)CN)C(=O)O)c3n2)n1 (racemic) [Compound 805, rac-(2S)-2-[(2-aminoacetyl)amino]-6-[[6-[3-(6-methyl-2-pyridyl)-1H-pyrazol-4-yl]-1,5-naphthyridine-4-carbonyl]amino]hexanoic acid]	1580 to 10000
0.0398 to 0.316	Cc1cccc(-c2n[nH]cc2-c2ccc3nccc(N4CCC(N5CCOCC5)CC4)c3n2)n1 [Compound 847, 4-[1-[6-[3-(6-methyl-2-pyridyl)-1H-pyrazol-4-yl]-1,5-naphthyridin-4-yl]-4-piperidyl]morpholine]	25.1 to 158
< 0.0316	Cc1cccc(-c2[nH]cnc2-c2ccc3ncc(-c4cc(C(=O)O[C@@H]5CCNC5)cs4)cc3c2)n1 [Compound 1105, [(3R)-pyrrolidin-3-yl] 5-[6-[5-(6-methyl-2-pyridyl)-1H-imidazol-4-yl]-3-quinolyl]thiophene-3-carboxylate]	25.1 to 158
0.398 to 3.16	Cc1cccc(-c2[nH]cnc2-c2ccc3ncc(-c4cncc(C(=O)O)c4)cc3c2)n1 [Compound 795, 5-[6-[5-(6-methyl-2-pyridyl)-1H-imidazol-4-yl]-3-quinolyl]pyridine-3-carboxylic acid]	1580 to 10000
< 0.0316	Cc1cccc(-c2[nH]cnc2-c2ccc3ncc(-c4csc(C(=O)OC[C@@H]5CCCCN5)c4)cc3c2)n1 [Compound 1213, [(2S)-2-piperidyl]methyl 4-[6-[5-(6-methyl-2-pyridyl)-1H-imidazol-4-yl]-3-quinolyl]thiophene-2-carboxylate]	25.1 to 158
3.98 to 31.6	Cc1cccc(-c2n[nH]cc2-c2ccc3nccc(C4CO[C@H]5CNC[C@@H]5N4)c3n2)n1 (mixture of isomers) [Compound 861, rac-(4aS,7aS)-3-[6-[3-(6-methyl-2-pyridyl)-1H-pyrazol-4-yl]-1,5-naphthyridin-4-yl]-2,3,4,4a,5,6,7,7a-octahydropyrrolo[3,4-b][1,4]oxazine]	200 to 1260
0.398 to 3.16	Cc1cccc(-c2n[nH]cc2-c2ccc3nccc(C(=O)OCCN4CCOCC4)c3n2)n1 [Compound 827, 2-morpholinoethyl 6-[3-(6-methyl-2-pyridyl)-1H-pyrazol-4-yl]-1,5-naphthyridine-4-carboxylate]	25.1 to 158

Further lines, the compound ahead of its results:

SMILES	Ki [1] [nM]	IC50 [2] [nM]
Cc1cccc(-c2[nH]cnc2-c2ccc3ncc(C4=CCN(C(=O)C5CCNCC5)CC4)cc3c2)n1 [Compound 778, [4-[6-[5-(6-methyl-2-pyridyl)-1H-imidazol-4-yl]-3-quinolyl]-3,6-dihydro-2H-pyridin-1-yl]-(4-piperidyl)methanone]	0.0398 to 0.316	25.1 to 158
Cc1nc(-c2n[nH]cc2-c2ccc3ncc(-c4c(C)nn5c4NCCC5)cc3n2)ccc1F [Compound 504, 2-[3-(5-fluoro-6-methyl-2-pyridyl)-1H-pyrazol-4-yl]-7-(2-methyl-4,5,6,7-tetrahydropyrazolo[1,5-a]pyrimidin-3-yl)-1,5-naphthyridine]	0.398 to 3.16	25.1 to 158
Cc1nc(-c2n[nH]cc2-c2ccc3ncc(N4CCC(N5CCN(C)CC5)CC4)cc3c2)ccc1F [Compound 93, 6-[3-(5-fluoro-6-methyl-2-pyridyl)-1H-pyrazol-4-yl]-3-[4-(4-methylpiperazin-1-yl)-1-piperidyl]quinoline]	< 0.0316	25.1 to 158
Cc1cccc(-c2n[nH]cc2-c2ccc3ncc(-c4cnc5n4CCNC5)cc3c2)n1 [Compound 538, 6-[3-(6-methyl-2-pyridyl)-1H-pyrazol-4-yl]-3-(5,6,7,8-tetrahydroimidazo[1,2-a]pyrazin-3-yl)quinoline]	0.398 to 3.16	25.1 to 158
Cc1cccc(-c2n[nH]cc2-c2ccc3ncc(NCC(=O)N4CCOCC4)cc3n2)n1 [Compound 90, 2-[[6-[3-(6-methyl-2-pyridyl)-1H-pyrazol-4-yl]-1,5-naphthyridin-3-yl]amino]-1-morpholino-ethanone]	0.398 to 3.16	25.1 to 158
CCN1CCN(CCNc2cnc3ccc(-c4c[nH]nc4-c4cccc(C)n4)nc3c2)CC1 [Compound 508, N-[2-(4-ethylpiperazin-1-yl)ethyl]-6-[3-(6-methyl-2-pyridyl)-1H-pyrazol-4-yl]-1,5-naphthyridin-3-amine]	0.0398 to 0.316	25.1 to 158
Cc1cccc(-c2[nH]cnc2-c2ccc3ncc(-c4cccc(N5CC(N)C5)c4)cc3c2)n1 [Compound 397, 1-[3-[6-[5-(6-methyl-2-pyridyl)-1H-imidazol-4-yl]-3-quinolyl]phenyl]azetidin-3-amine]	< 0.0316	25.1 to 158
Cc1cccc(-c2n[nH]c(N)c2-c2ccc3ncc(N4CCNCC4)cc3n2)n1 [Compound 238, 3-(6-methyl-2-pyridyl)-4-(7-piperazin-1-yl-1,5-naphthyridin-2-yl)-1H-pyrazol-5-amine]	0.398 to 3.16	1580 to 10000
Cc1cccc(-c2n[nH]cc2-c2ccc3ncc(N4CCn5nc(C6=CCC(N)CC6)nc5C4)cc3n2)n1 (stereo not shown) [Compound 268, 4-[7-[6-[3-(6-methyl-2-pyridyl)-1H-pyrazol-4-yl]-1,5-naphthyridin-3-yl]-6,8-dihydro-5H-[1,2,4]triazolo[1,5-a]pyrazin-2-yl]cyclohex-3-en-1-amine]	0.0398 to 0.316	200 to 1260
Cc1cccc(-c2n[nH]cc2-c2ccc3ncc(N(C)CCN4CCOCC4)cc3n2)n1 [Compound 103, N-methyl-6-[3-(6-methyl-2-pyridyl)-1H-pyrazol-4-yl]-N-(2-morpholinoethyl)-1,5-naphthyridin-3-amine]	0.0398 to 0.316	25.1 to 158
COc1[nH]nc(-c2cccc(C)n2)c1-c1ccc2ncc(Br)cc2n1 [Compound 42, 7-bromo-2-(5-methoxy-3-(6-methylpyridin-2-yl)-1H-pyrazol-4-yl)-1,5-naphthyridine]	0.0398 to 0.316	25.1 to 158
Cc1cccc(-c2n[nH]cc2-c2ccc3ncc(CN4CC(N5CCOCC5)C4)cc3n2)n1 [Compound 495, 4-[1-[[6-[3-(6-methyl-2-pyridyl)-1H-pyrazol-4-yl]-1,5-naphthyridin-3-yl]methyl]azetidin-3-yl]morpholine]	3.98 to 31.6	200 to 1260
Cc1cccc(-c2n[nH]cc2-c2ccc3ncc(N4CCN(C5(C(N)=O)CCCC5)CC4)cc3n2)n1 [Compound 528, 1-[4-[6-[3-(6-methyl-2-pyridyl)-1H-pyrazol-4-yl]-1,5-naphthyridin-3-yl]piperazin-1-yl]cyclopentanecarboxamide]	0.398 to 3.16	200 to 1260
Cc1cccc(-c2n[nH]cc2-c2ccc3ncc(-c4cn5c(n4)CN(CCO)CC5)cc3n2)n1 [Compound 198, 2-[2-[6-[3-(6-methyl-2-pyridyl)-1H-pyrazol-4-yl]-1,5-naphthyridin-3-yl]-6,8-dihydro-5H-imidazo[1,2-a]pyrazin-7-yl]ethanol]	0.0398 to 0.316	25.1 to 158

Reference: US11590116B2 (THERAVANCE BIOPHARMA R&D IP, LLC, priority 2019, dated 2023)
